In the OPERA property sets (Mansouri et al. 2018) one finds logP data, which are given here for 46 molecules.

Each structure is given as a SMILES string.

In the case of `COc1cccc(C(=O)N(NC(=O)c2ccccc2)C(C)(C)C)c1`, the log partition coefficient (logP) is 2.56. `CC(C)(C)N(NC(=O)c1ccccc1)C(=O)c1ccc(F)cc1` registered a log partition coefficient (logP) of 2.85. For the molecule `Cc1cc(C)cc(C(=O)N(NC(=O)c2ccccc2)C(C)(C)C)c1`, the logP is 3.39. Molecule `Cc1cccc(C(=O)N(NC(=O)c2ccccc2)C(C)(C)C)c1` had a lipophilicity (logP) of 2.79. Take `Cc1ccc(C)c(C(=O)N(NC(=O)c2ccccc2)C(C)(C)C)c1`: the logP came out at 3.25.

Regarding `CC(C)(C)N(NC(=O)c1ccccc1)C(=O)c1ccc(Cl)c(Cl)c1`, the logP amounted to 4.25. In turn, `CC(C)(C)N(NC(=O)c1ccccc1)C(=O)c1cccc(I)c1` gave a lipophilicity (logP) of 3.72. `CC(C)(C)N(NC(=O)c1ccccc1)C(=O)c1cccc(F)c1` gave a log partition coefficient (logP) of 2.78.

Regarding `CSc1ccccc1C(=O)N(NC(=O)c1ccccc1)C(C)(C)C`, the logP is 2.6. As to `COc1ccc(C(=O)N(NC(=O)c2ccccc2)C(C)(C)C)cc1`, the logP turned out to be 2.56.

In the case of `CC(C)(C)N(NC(=O)c1ccccc1)C(=O)c1ccc(Br)cc1`, the logP came out at 3.66. Next, `CC(C)(C)N(NC(=O)c1ccccc1)C(=O)c1cccc(C(F)(F)F)c1`: 3.61; `CC(C)(C)N(NC(=O)c1ccccc1)C(=O)c1c(F)cccc1F`: 2.16; `CC(C)(C)N(NC(=O)c1ccccc1)C(=O)c1ccc(I)cc1`: 3.78. As to `Cc1ccccc1C(=O)N(NC(=O)c1ccccc1)C(C)(C)C`, the logP came out at 2.75. Consider `CC(C)(C)N(NC(=O)c1ccccc1)C(=O)c1cccc([N+](=O)[O-])c1`, for which the lipophilicity (logP) was found to be 2.73. `CC(C)(C)N(NC(=O)c1ccccc1)C(=O)c1ccccc1Br`: the logP amounted to 2.69. The molecule `CC(C)(C)N(NC(=O)c1ccccc1)C(=O)c1cccc(Cl)c1Cl` yielded a log partition coefficient (logP) of 3.41. The figure for `CC(C)(C)N(NC(=O)c1ccccc1)C(=O)c1ccc(C(F)(F)F)cc1` is 3.77; for `CC(C)(C)N(NC(=O)c1ccccc1)C(=O)c1cccc(Cl)c1` it is 3.28. Molecule `CC(C)(C)N(NC(=O)c1ccccc1)C(=O)c1ccc([N+](=O)[O-])cc1` showed a logP of 2.63. The figure for `CC(C)(C)N(NC(=O)c1ccccc1)C(=O)c1c(F)c(F)c(F)c(F)c1F` is 3.25; for `CC(C)(C)N(NC(=O)c1ccccc1)C(=O)c1ccccc1` it is 2.45. Consider `CC(C)(C)N(NC(=O)c1ccccc1)C(=O)c1cc(F)c(F)c(F)c1F`, for which the logP came out at 3.44.

The molecule `Cc1ccc(C(=O)N(NC(=O)c2ccccc2)C(C)(C)C)cc1` showed a lipophilicity (logP) of 2.99. For the molecule `CC(C)(C)N(NC(=O)c1ccccc1)C(=O)c1ccccc1C(F)(F)F`, the logP was 2.85. Molecule `CC(C)(C)N(NC(=O)c1ccccc1)C(=O)c1ccccc1F` gave a logP of 2.38. Molecule `CC(C)(C)N(NC(=O)c1ccccc1)C(=O)c1ccc(Cl)cc1Cl` gave a logP of 3.55. Take `COc1ccc(C(=O)N(NC(=O)c2ccccc2)C(C)(C)C)cc1OC`: the logP turned out to be 2.09. The figure for `COc1ccccc1C(=O)N(NC(=O)c1ccccc1)C(C)(C)C` is 2.04; for `Cc1c(Cl)cccc1C(=O)N(NC(=O)c1ccccc1)C(C)(C)C` it is 3.57.

Take `CC(C)(C)N(NC(=O)c1cccc(Cl)c1)C(=O)c1ccccc1Cl`: the logP was determined as 3.49. The figure for `Cc1ccc(C(=O)N(NC(=O)c2ccccc2)C(C)(C)C)c(C)c1` is 3.18.

Take `Cc1cccc(C(=O)N(NC(=O)c2ccccc2)C(C)(C)C)c1C`: the lipophilicity (logP) was found to be 3.1. The molecule `CC(C)(C)N(NC(=O)c1ccccc1)C(=O)c1cccc(Br)c1` returned a logP of 3.49. `CC(C)(C)N(NC(=O)c1ccccc1)C(=O)c1ccc(Cl)cc1`: the logP stood at 3.42. As for `CC(C)(C)N(NC(=O)c1ccccc1)C(=O)c1ccc(C#N)cc1`, the logP turned out to be 2.5. Next, `CC(C)(C)N(NC(=O)c1ccccc1)C(=O)c1cccc(C#N)c1`: 2.34; `CC(C)(C)N(NC(=O)c1ccccc1)C(=O)c1ccccc1I`: 2.83; `CC(C)(C)N(NC(=O)c1ccccc1)C(=O)c1c(Cl)cccc1Cl`: 2.56.

On to `CC(C)(C)N(NC(=O)c1ccccc1)C(=O)c1c(F)cccc1Cl`, for which the logP was 2.34. In turn, `Cc1ccc(C(=O)N(NC(=O)c2ccccc2)C(C)(C)C)cc1C` returned a logP of 3.34. For `CC(C)(C)N(NC(=O)c1ccccc1)C(=O)c1cc(Cl)ccc1Cl`, the logP was 3.36. The logP values of the last two molecules are within 0.2 log units of each other. `CC(C)(C)N(NC(=O)c1ccccc1)C(=O)c1ccccc1[N+](=O)[O-]` gave a log partition coefficient (logP) of 2.27.

Molecule `CCc1ccccc1C(=O)N(NC(=O)c1ccccc1)C(C)(C)C` gave a logP of 2.96. For `CC(C)(C)N(NC(=O)c1ccccc1Cl)C(=O)c1ccccc1Cl`, the logP amounted to 2.75.

Broadly, the logP is a log measure of how a compound divides between an organic and an aqueous phase. A high value points to a more lipophilic compound.
